Columns and labels:
[1] = system: SOLNI; assay: Pre-emergence herbicidal activity on SOLNI (black nightshade); assay type: in vivo, Solanum nigrum; details: lowest tested rate giving 80% or greater inhibition, approx. 14 days after planting and treating, greenhouse
Procedure, shortened: (§1)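 GR80 values come from percent inhibition relative to untreated plants, rated roughly 14 days after planting and treating, with rates up to typically 1000 g/ha. Compound was sprayed onto the soil over freshly covered seeds as a dilution in 50:50 acetone/water; pots kept in greenhouse at 30/21° C. day/night after 0.64 cm overhead watering.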

[2] = system: AMARE; assay: Pre-emergence herbicidal activity on AMARE (redroot pigweed); assay type: in vivo, Amaranthus retroflexus; details: lowest tested rate giving 80% or greater inhibition, approx. 14 days after planting and treating, greenhouse
Procedure, shortened: as §1

[3] = system: DATST; assay: Pre-emergence herbicidal activity on DATST (jimsonweed); assay type: in vivo, Datura stramonium; details: lowest tested rate giving 80% or greater inhibition, approx. 14 days after planting and treating, greenhouse
Procedure, shortened: as §1

[4] = system: CHEAL; assay: Pre-emergence herbicidal activity on CHEAL (common lambsquarters); assay type: in vivo, Chenopodium album; details: lowest tested rate giving 80% or greater inhibition, approx. 14 days after planting and treating, greenhouse
Procedure, shortened: as §1

[5] = system: CONAR; assay: Pre-emergence herbicidal activity on CONAR (field bindweed); assay type: in vivo, Convolvulus arvensis; details: lowest tested rate giving 80% or greater inhibition, approx. 14 days after planting and treating, greenhouse
Procedure, shortened: as §1

[6] = system: POROL; assay: Pre-emergence herbicidal activity on POROL (common purslane); assay type: in vivo, Portulaca oleracea; details: lowest tested rate giving 80% or greater inhibition, approx. 14 days after planting and treating, greenhouse
Procedure, shortened: as §1

[7] = system: CIRAR; assay: Pre-emergence herbicidal activity on CIRAR (canada thistle, seedling); assay type: in vivo, Cirsium arvense; details: lowest tested rate giving 80% or greater inhibition, approx. 14 days after planting and treating, greenhouse
Procedure, shortened: as §1

[8] = system: ECHCG; assay: Pre-emergence herbicidal activity on ECHCG (barnyardgrass); assay type: in vivo, Echinochloa crus-galli; details: lowest tested rate giving 80% or greater inhibition, approx. 14 days after planting and treating, greenhouse
Procedure, shortened: as §1

[9] = system: PANMI; assay: Pre-emergence herbicidal activity on PANMI (wild proso millet); assay type: in vivo, Panicum miliaceum; details: lowest tested rate giving 80% or greater inhibition, approx. 14 days after planting and treating, greenhouse
Procedure, shortened: as §1

[10] = system: SORHA; assay: Pre-emergence herbicidal activity on SORHA (johnsongrass, seedling); assay type: in vivo, Sorghum halepense; details: lowest tested rate giving 80% or greater inhibition, approx. 14 days after planting and treating, greenhouse
Procedure, shortened: as §1

[11] = system: SETFA; assay: Pre-emergence herbicidal activity on SETFA (giant foxtail); assay type: in vivo, Setaria faberi; details: lowest tested rate giving 80% or greater inhibition, approx. 14 days after planting and treating, greenhouse
Procedure, shortened: as §1

[12] = system: PANDI; assay: Pre-emergence herbicidal activity on PANDI (fall panicum); assay type: in vivo, Panicum dichotomiflorum; details: lowest tested rate giving 80% or greater inhibition, approx. 14 days after planting and treating, greenhouse
Procedure, shortened: as §1

[13] = system: BRAPP; assay: Pre-emergence herbicidal activity on BRAPP (broadleaf signalgrass); assay type: in vivo, Brachiaria platyphylla; details: lowest tested rate giving 80% or greater inhibition, approx. 14 days after planting and treating, greenhouse
Procedure, shortened: as §1

[14] = system: DIGSA; assay: Pre-emergence herbicidal activity on DIGSA (large crabgrass); assay type: in vivo, Digitaria sanguinalis; details: lowest tested rate giving 80% or greater inhibition, approx. 14 days after planting and treating, greenhouse
Procedure, shortened: as §1

[15] = system: ABUTH; assay: Post-emergence herbicidal activity on ABUTH (velvetleaf); assay type: in vivo, Abutilon theophrasti; details: post-emergence spray; lowest tested rate with 80% or greater inhibition; about 14 days after treatment
From the text: (§2) All such uses, and the biological activity enabling such uses, are embraced by the term “herbicidal” herein. Tables 15 and 16 summarize results of tests conducted as described below to determine the pre-emergence herbicidal activity, in the form of a GR80 value, of illustrative compounds of this invention. […] Where herbicidal activity was evident but 80% inhibition was not achieved at the highest rate tested (typically 1000 g/ha), an asterisk (*) is shown in the following tables. Herbicidal activity evident in the form of symptoms of phytotoxicity, in the absence of at least 80% inhibition at any rate, is indicated in the tables by “phyto”. A blank cell in the following tables indicates no herbicidal or phytotoxic response at any rate tested.
(§3) In another set of tests, the post-emergence activity of compounds of this invention was evaluated on the cool season species listed above. The following procedure was used.
(§4) A pre-prepared topsoil mixture (described above) was placed in a pot and compacted to a depth of 1.0 to 1.25 cm from the top of the pot. Seeds of each of several monocotyledonous and dicotyledonous annual plant species were placed on top of the soil The seeds were covered with a mixture of 50% topsoil and 50% Rediearth™ in sufficient quantity to level-fill the pots. The pots were then placed on a greenhouse bench and subirrigated as needed until plants growing from the seeds had emerged and reached a suitable growth stage for post-emergence treatment, typically 9 to 14 days after planting.
(§5) A known amount of each test compound dissolved or suspended in an appropriate organic solvent was diluted with a 50:50 mix of acetone and water and applied to the plants by spraying with a standard spray nozzle in a spray volume of 3,100 l/ha at a spray pressure of […] (30 psig). Control plants were not sprayed.
(§6) After treatment the plants were placed in a greenhouse with a 30/21° C. day/night temperature regime and were subsequently watered as needed for growth. Approximately 14 days after treatment, the plants were observed and herbicidal efficacy recorded as percent inhibition by comparison with control plants.

[16] = system: SOLNI; assay: Post-emergence herbicidal activity on SOLNI (black nightshade); assay type: in vivo, Solanum nigrum; details: post-emergence spray; lowest tested rate with 80% or greater inhibition; about 14 days after treatment
From the text: as §2, §3, §4, §5, §6

[17] = system: AMARE; assay: Post-emergence herbicidal activity on AMARE (redroot pigweed); assay type: in vivo, Amaranthus retroflexus; details: post-emergence spray; lowest tested rate with 80% or greater inhibition; about 14 days after treatment
From the text: as §2, §3, §4, §5, §6

[18] = system: DATST; assay: Post-emergence herbicidal activity on DATST (jimsonweed); assay type: in vivo, Datura stramonium; details: post-emergence spray; lowest tested rate with 80% or greater inhibition; about 14 days after treatment
From the text: as §2, §3, §4, §5, §6

[19] = system: CHEAL; assay: Post-emergence herbicidal activity on CHEAL (common lambsquarters); assay type: in vivo, Chenopodium album; details: post-emergence spray; lowest tested rate with 80% or greater inhibition; about 14 days after treatment
From the text: as §2, §3, §4, §5, §6

[20] = system: CONAR; assay: Post-emergence herbicidal activity on CONAR (field bindweed); assay type: in vivo, Convolvulus arvensis; details: post-emergence spray; lowest tested rate with 80% or greater inhibition; about 14 days after treatment
From the text: as §2, §3, §4, §5, §6

[21] = system: POROL; assay: Post-emergence herbicidal activity on POROL (common purslane; table head prints PORAL); assay type: in vivo, Portulaca oleracea; details: post-emergence spray; lowest tested rate with 80% or greater inhibition; about 14 days after treatment
From the text: as §2, §3, §4, §5, §6

[22] = system: CIRAR; assay: Post-emergence herbicidal activity on CIRAR (canada thistle, seedling); assay type: in vivo, Cirsium arvense; details: post-emergence spray; lowest tested rate with 80% or greater inhibition; about 14 days after treatment
From the text: as §2, §3, §4, §5, §6

[23] = system: ECHCG; assay: Post-emergence herbicidal activity on ECHCG (barnyardgrass); assay type: in vivo, Echinochloa crus-galli; details: post-emergence spray; lowest tested rate with 80% or greater inhibition; about 14 days after treatment
From the text: as §2, §3, §4, §5, §6

[24] = system: PANMI; assay: Post-emergence herbicidal activity on PANMI (wild proso millet); assay type: in vivo, Panicum miliaceum; details: post-emergence spray; lowest tested rate with 80% or greater inhibition; about 14 days after treatment
[25] = system: SORHA; assay: Post-emergence herbicidal activity on SORHA (johnsongrass, seedling); assay type: in vivo, Sorghum halepense; details: post-emergence spray; lowest tested rate with 80% or greater inhibition; about 14 days after treatment
From the text: as §2, §3, §4, §5, §6

[26] = system: SETFA; assay: Post-emergence herbicidal activity on SETFA (giant foxtail); assay type: in vivo, Setaria faberi; details: post-emergence spray; lowest tested rate with 80% or greater inhibition; about 14 days after treatment
From the text: as §2, §3, §4, §5, §6

[27] = system: PANDI; assay: Post-emergence herbicidal activity on PANDI (fall panicum); assay type: in vivo, Panicum dichotomiflorum; details: post-emergence spray; lowest tested rate with 80% or greater inhibition; about 14 days after treatment
From the text: as §2, §3, §4, §5, §6

[28] = system: SORVU; assay: Post-emergence herbicidal activity on SORVU (shattercane); assay type: in vivo, Sorghum vulgare; details: post-emergence spray; lowest tested rate with 80% or greater inhibition; about 14 days after treatment
From the text: as §2, §3, §4, §5, §6

[29] = system: BRAPP; assay: Post-emergence herbicidal activity on BRAPP (broadleaf signalgrass); assay type: in vivo, Brachiaria platyphylla; details: post-emergence spray; lowest tested rate with 80% or greater inhibition; about 14 days after treatment
From the text: as §2, §3, §4, §5, §6

[30] = system: DIGSA; assay: Post-emergence herbicidal activity on DIGSA (large crabgrass); assay type: in vivo, Digitaria sanguinalis; details: post-emergence spray; lowest tested rate with 80% or greater inhibition; about 14 days after treatment
[31] = system: dicotyledonous species; assay: Greenhouse post-emergence test in combination with glyphosate, dicotyledonous species; assay type: in vivo; details: glyphosate isopropylammonium salt alone at 1000 g a.e./ha
From the text: as §4, §5, §6
(§7) In a greenhouse post-emergence test conducted according to the procedure described hereinabove, R-2-fluoro-3-trifluoromethyl-N-[1-methyl-2-(3-trifluoromethyl)phenylcarbonylamino]ethylbenzamide (the compound of Example 13) was applied at 0, 64, 125 and 250 g/ha in combination with glyphosate isopropylammonium salt at 1000 g a.e./ha. The glyphosate herbicide alone gave 72% control of dicotyledonous species and 84% control of monocotyledonous species. […] At 250 g/ha, addition of the compound of Example 13 gave 93% control of dicotyledonous species, but reduced control of monocotyledonous species to 73%.

[32] = system: monocotyledonous species; assay: Greenhouse post-emergence test in combination with glyphosate, monocotyledonous species; assay type: in vivo; details: glyphosate isopropylammonium salt alone at 1000 g a.e./ha
From the text: as §4, §5, §6, §7

C[C@H](CNC(=O)c1cccc(C(F)(F)F)c1)NC(=O)Oc1ccc(F)cc1 [Example 230]
Pre-emergence activity (GR80) on SOLNI [1]: * (Where herbicidal activity was evident but 80% inhibition was not achieved at the highest rate tested (typically 1000 g/ha), an asterisk (*) is shown)
Pre-emergence activity (GR80) on AMARE [2]: 500 g/ha
Pre-emergence activity (GR80) on DATST [3]: 750 g/ha
Pre-emergence activity (GR80) on CHEAL [4]: 1000 g/ha
Pre-emergence activity (GR80) on CONAR [5]: phyto
Pre-emergence activity (GR80) on PORAL [6]: 500 g/ha
Pre-emergence activity (GR80) on CIRAR [7]: 750 g/ha
Pre-emergence activity (GR80) on ECHCG [8]: phyto
Pre-emergence activity (GR80) on PANMI [9]: phyto
Pre-emergence activity (GR80) on SORHA [10]: phyto
Pre-emergence activity (GR80) on SETFA [11]: * (Where herbicidal activity was evident but 80% inhibition was not achieved at the highest rate tested (typically 1000 g/ha), an asterisk (*) is shown)
Pre-emergence activity (GR80) on PANDI [12]: 1000 g/ha
Pre-emergence activity (GR80) on BRAPP [13]: phyto
Pre-emergence activity (GR80) on DIGSA [14]: 750 g/ha
Post-emergence activity (GR80) ABUTH [15]: [empty]
Post-emergence activity (GR80) SOLNI [16]: [empty]
Post-emergence activity (GR80) AMARE [17]: phyto
Post-emergence activity (GR80) DATST [18]: phyto
Post-emergence activity (GR80) CHEAL [19]: phyto
Post-emergence activity (GR80) CONAR [20]: phyto
Post-emergence activity (GR80) PORAL [21]: phyto
Post-emergence activity (GR80) CIRAR [22]: [empty]
Post-emergence activity (GR80) ECHCG [23]: [empty]
Post-emergence activity (GR80) PANMI [24]: [empty]
Post-emergence activity (GR80) SORHA [25]: [empty]
Post-emergence activity (GR80) SETFA [26]: [empty]
Post-emergence activity (GR80) PANDI [27]: [empty]
Post-emergence activity (GR80) SORVU [28]: [empty]
Post-emergence activity (GR80) BRAPP [29]: [empty]
Post-emergence activity (GR80) DIGSA [30]: phyto

glyphosate isopropylammonium salt [reference compound]
control of dicotyledonous species [31]: 72%
control of monocotyledonous species [32]: 84%

From patent US20020052295A1, “Diacyl derivatives of propylene diamine having herbicidal activity” (priority 1999, published 2002)
